#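 Cultured in 96-well plates, cells were exposed to test compound for 48 hours across five concentrations. Definition used: TGI = concentration required for complete inhibition of growth.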
# Tests used:
# Test in all cases: NCI-60 cell line screen, 48 h
# CCRF-CEM leukemia = system: CCRF-CEM leukemia
# RXF 393 renal = system: RXF 393 renal
# KM12 colon = system: KM12 colon
# SNB-19 CNS = system: SNB-19 CNS
# NCI-H23 lung = system: NCI-H23 lung
# HCC-2998 colon = system: HCC-2998 colon
# HOP-18 NSCLC = system: HOP-18 NSCLC
# SK-MEL-28 melanoma = system: SK-MEL-28 melanoma
# SF-295 CNS = system: SF-295 CNS
# NCI-H522 lung = system: NCI-H522 lung
# ACHN renal = system: ACHN renal
# SW-620 colon = system: SW-620 colon
# A549 NSCLC = system: A549 NSCLC
# CAKI-1 renal = system: CAKI-1 renal
# OVCAR-4 ovarian = system: OVCAR-4 ovarian
# SF-539 CNS = system: SF-539 CNS
# HOP-62 NSCLC = system: HOP-62 NSCLC
# UACC-257 melanoma = system: UACC-257 melanoma
# XF 498 CNS = system: XF 498 CNS
# SNB-78 CNS = system: SNB-78 CNS
# HT29 colon = system: HT29 colon
# SK-OV-3 ovarian = system: SK-OV-3 ovarian
# 786-0 renal = system: 786-0 renal
# A498 renal = system: A498 renal
# M19-MEL melanoma = system: M19-MEL melanoma
# RXF-631 renal = system: RXF-631 renal
# HL-60(TB) leukemia = system: HL-60(TB) leukemia
# NCI-H226 lung = system: NCI-H226 lung
# MALME-3M melanoma = system: MALME-3M melanoma
# SK-MEL-5 melanoma = system: SK-MEL-5 melanoma
# UO-31 renal = system: UO-31 renal
# HOP-92 NSCLC = system: HOP-92 NSCLC
# COLO 205 colon = system: COLO 205 colon
# SN12C renal = system: SN12C renal
# SNB-75 CNS = system: SNB-75 CNS
# EKVX NSCLC = system: EKVX NSCLC
# DLD-1 colon = system: DLD-1 colon
# SF-268 CNS = system: SF-268 CNS
# M14 melanoma = system: M14 melanoma
# TK-10 renal = system: TK-10 renal
# HCT-116 colon = system: HCT-116 colon
# IGROV1 ovarian = system: IGROV1 ovarian
# LXFL 529 NSCLC = system: LXFL 529 NSCLC
# U251 CNS = system: U251 CNS
# UACC-62 melanoma = system: UACC-62 melanoma
# K-562 leukemia = system: K-562 leukemia
# DMS 114 small cell lung = system: DMS 114 small cell lung
# LOX IMVI melanoma = system: LOX IMVI melanoma
# KM20L2 colon = system: KM20L2 colon
# SR leukemia = system: SR leukemia
# OVCAR-8 ovarian = system: OVCAR-8 ovarian
# OVCAR-3 ovarian = system: OVCAR-3 ovarian
# NCI-H460 lung = system: NCI-H460 lung
# HCT-15 colon = system: HCT-15 colon
# OVCAR-5 ovarian = system: OVCAR-5 ovarian
# RPMI-8226 leukemia = system: RPMI-8226 leukemia
# DMS 273 small cell lung = system: DMS 273 small cell lung
smiles,measurement,setting,value
C=CCO[C@H]1CC[C@@]2(C)C(CC[C@]3(C)C2CC=C2[C@@H]4[C@@H](C)C(C)CC[C@]4(C(=O)O)CCC23C)C1(C)C (stereo partly specified),TGI,CCRF-CEM leukemia,28.9 µM
same,TGI,RXF 393 renal,22.8 µM
same,TGI,KM12 colon,30.5 µM
same,TGI,SNB-19 CNS,32.2 µM
same,TGI,NCI-H23 lung,28.9 µM
same,TGI,HCC-2998 colon,32.4 µM
same,TGI,HOP-18 NSCLC,37.1 µM
same,TGI,SK-MEL-28 melanoma,29.5 µM
same,TGI,SF-295 CNS,27.5 µM
same,TGI,NCI-H522 lung,28.4 µM
same,TGI,ACHN renal,29.8 µM
same,TGI,SW-620 colon,35.4 µM
same,TGI,A549 NSCLC,32.7 µM
same,TGI,CAKI-1 renal,33.2 µM
same,TGI,OVCAR-4 ovarian,39.3 µM
same,TGI,SF-539 CNS,34.1 µM
same,TGI,HOP-62 NSCLC,41 µM
same,TGI,UACC-257 melanoma,32.3 µM
same,TGI,XF 498 CNS,20.2 µM
same,TGI,SNB-78 CNS,35.4 µM
same,TGI,HT29 colon,31.6 µM
same,TGI,SK-OV-3 ovarian,31.7 µM
same,TGI,786-0 renal,30.6 µM
same,TGI,A498 renal,32.4 µM
same,TGI,M19-MEL melanoma,35.7 µM
same,TGI,RXF-631 renal,28.9 µM
same,TGI,HL-60(TB) leukemia,22 µM
same,TGI,NCI-H226 lung,39.6 µM
same,TGI,MALME-3M melanoma,38.4 µM
same,TGI,SK-MEL-5 melanoma,31.8 µM
same,TGI,UO-31 renal,31.2 µM
same,TGI,HOP-92 NSCLC,32.4 µM
same,TGI,COLO 205 colon,32.4 µM
same,TGI,SN12C renal,27.1 µM
same,TGI,SNB-75 CNS,30.2 µM
same,TGI,EKVX NSCLC,38.1 µM
same,TGI,DLD-1 colon,32.1 µM
same,TGI,SF-268 CNS,40.5 µM
same,TGI,M14 melanoma,34.6 µM
same,TGI,TK-10 renal,32.2 µM
same,TGI,HCT-116 colon,25.5 µM
same,TGI,IGROV1 ovarian,33.9 µM
same,TGI,LXFL 529 NSCLC,26.9 µM
same,TGI,U251 CNS,30.3 µM
same,TGI,UACC-62 melanoma,28.3 µM
same,TGI,K-562 leukemia,28.6 µM
same,TGI,DMS 114 small cell lung,32.1 µM
same,TGI,LOX IMVI melanoma,27.2 µM
same,TGI,KM20L2 colon,33.2 µM
same,TGI,SR leukemia,36.2 µM
same,TGI,OVCAR-8 ovarian,36.6 µM
same,TGI,OVCAR-3 ovarian,29.8 µM
same,TGI,NCI-H460 lung,36.3 µM
COC(=O)C(C)Oc1ccc(O)cc1 (stereo unspecified),TGI,CCRF-CEM leukemia,> 100 µM
same,TGI,KM12 colon,> 100 µM
same,TGI,SNB-19 CNS,> 100 µM
same,TGI,NCI-H23 lung,> 100 µM
same,TGI,HCC-2998 colon,> 100 µM
same,TGI,HOP-18 NSCLC,> 100 µM
same,TGI,SK-MEL-28 melanoma,62 µM
same,TGI,SF-295 CNS,> 100 µM
same,TGI,HCT-15 colon,> 100 µM
same,TGI,NCI-H522 lung,> 100 µM
same,TGI,ACHN renal,> 100 µM
same,TGI,SW-620 colon,> 100 µM
same,TGI,A549 NSCLC,> 100 µM
same,TGI,CAKI-1 renal,> 100 µM
same,TGI,OVCAR-4 ovarian,> 100 µM
same,TGI,SF-539 CNS,> 100 µM
same,TGI,HOP-62 NSCLC,> 100 µM
same,TGI,UACC-257 melanoma,> 100 µM
same,TGI,SNB-78 CNS,> 100 µM
same,TGI,HT29 colon,> 100 µM
same,TGI,SK-OV-3 ovarian,> 100 µM
same,TGI,786-0 renal,> 100 µM
same,TGI,A498 renal,> 100 µM
same,TGI,M19-MEL melanoma,> 100 µM
same,TGI,RXF-631 renal,> 100 µM
same,TGI,HL-60(TB) leukemia,> 100 µM
same,TGI,NCI-H226 lung,> 100 µM
same,TGI,MALME-3M melanoma,> 100 µM
same,TGI,SK-MEL-5 melanoma,> 100 µM
same,TGI,UO-31 renal,> 100 µM
same,TGI,HOP-92 NSCLC,> 100 µM
same,TGI,COLO 205 colon,> 100 µM
same,TGI,SN12C renal,> 100 µM
same,TGI,SNB-75 CNS,> 100 µM
same,TGI,EKVX NSCLC,> 100 µM
same,TGI,DLD-1 colon,> 100 µM
same,TGI,OVCAR-5 ovarian,> 100 µM
same,TGI,SF-268 CNS,44.5 µM
same,TGI,M14 melanoma,> 100 µM
same,TGI,RPMI-8226 leukemia,> 100 µM
same,TGI,TK-10 renal,> 100 µM
same,TGI,HCT-116 colon,40.3 µM
same,TGI,IGROV1 ovarian,> 100 µM
same,TGI,LXFL 529 NSCLC,> 100 µM
same,TGI,U251 CNS,> 100 µM
same,TGI,UACC-62 melanoma,> 100 µM
same,TGI,K-562 leukemia,> 100 µM
same,TGI,DMS 114 small cell lung,34.7 µM
same,TGI,KM20L2 colon,> 100 µM
same,TGI,OVCAR-8 ovarian,> 100 µM
same,TGI,OVCAR-3 ovarian,> 100 µM
same,TGI,NCI-H460 lung,> 100 µM
same,TGI,DMS 273 small cell lung,> 100 µM

# From PubChem BioAssay (NCI)
